Article PMC5608353 (PLoS ONE, 2017)
Converted amounts (≈) assume the structure as drawn. “And” between values parts separate entries of the source, which are not always exact repeats. Equal values may be shown once. Read-outs that look alike come from different tables or passages of the source. Where a SMILES comes first, the peptide text is derived from it. Bridges are numbered along the chain shown (N, C = ends).

Key:
[1] = tested on: C. perfringens CVCC 51; assay: microbe, parasite or virus in culture; conditions: Clostridium perfringens, CVCC51, 18 h
[2] = tested on: C. perfringens CVCC 46; assay: microbe, parasite or virus in culture; conditions: Clostridium perfringens, CVCC46, 18 h
[3] = tested on: C. perfringens JT1; assay: microbe, parasite or virus in culture; conditions: Clostridium perfringens, JT1, 18 h
[4] = tested on: C. perfringens JZ10; assay: microbe, parasite or virus in culture; conditions: Clostridium perfringens, JZ10, 18 h
[5] = tested on: C. perfringens JC2; assay: microbe, parasite or virus in culture; conditions: Clostridium perfringens, JC2, 18 h
[6] = tested on: C. perfringens CVCC 1137; assay: microbe, parasite or virus in culture; conditions: Clostridium perfringens, CVCC1137, 18 h
[7] = tested on: C. perfringens CVCC 46; assay type: cell-based, Clostridium perfringens type A
[8] = tested on: C. perfringens CVCC 46
[9] = tested on: C. perfringens CVCC 46; assay: microbe, parasite or virus in culture; conditions: Clostridium perfringens, CVCC46, read-out: MICa (MIC of drug used alone)
[10] = tested on: C. perfringens type C CVCC 61 cells; conditions: cited from earlier work
[11] = tested on: C. perfringens CVCC 46; remark: listed apart in the source
[12] = tested on: C. perfringens CVCC 1137
[13] = tested on: C. perfringens CVCC 51
[14] = tested on: C. perfringens JZ10
[15] = tested on: C. perfringens CVCC 46 genomic DNA; assay type: binding, Clostridium perfringens type A
[16] = tested on: C. perfringens JC2
[17] = tested on: C. perfringens genomic DNA; assay type: binding, Clostridium perfringens
[18] = tested on: C. perfringens CVCC 46; assay type: cell-based, Clostridium perfringens type A; remark: listed apart in the source
[19] = tested on: C. perfringens JT1
[20] = tested on: C. perfringens CVCC 46; assay type: cell-based, Clostridium perfringens type A; remark: listed apart in the source
[21] = tested on: human erythrocytes, epidermal keratinocytes, A549 cells, murine L929 fibroblasts, porcine intestinal epithelial cell line ZYMSIEC02; conditions: cited from earlier work
[22] = CVCC 46, 2×MIC, 1×10^5 CFU/mL, 37°C, colony counts
[23] = CVCC 46, broth microdilution, 1×10^5 CFU/mL, anaerobic 37°C, 12~18 h, triplicate
[24] = CVCC 46, broth microdilution, anaerobic 37°C, 12~18 h, triplicate
[25] = CVCC 1137, broth microdilution, anaerobic 37°C, 12~18 h
[26] = CVCC 51, broth microdilution, anaerobic 37°C, 12~18 h
[27] = JZ10, broth microdilution, anaerobic 37°C, 12~18 h
[28] = CVCC 46, chequerboard, drug alone, triplicate
[29] = JC2, broth microdilution, anaerobic 37°C, 12~18 h
[30] = JT1, broth microdilution, anaerobic 37°C, 12~18 h

## CN(C)[C@@H]1C(O)=C(C(N)=O)C(=O)[C@@]2(O)C(O)=C3C(=O)c4c(O)ccc(Cl)c4[C@@](C)(O)[C@H]3C[C@@H]12 [Aureomycin]
[1]
  MIC: 1.04 µM (≈ 0.498 µg/mL)
[2]
  MBC: 8.36 µM (≈ 4 µg/mL)
  MIC: 4.18 µM (≈ 2 µg/mL)
[3]
  MIC: 16.7 µM (≈ 8 µg/mL)
[4]
  MIC: 16.7 µM (≈ 8 µg/mL)
[5]
  MIC: 16.7 µM (≈ 8 µg/mL)
[6]
  MIC: 0.52 µM (≈ 0.249 µg/mL)
[7]; [22]
  Time to 99.9% reduction of bacterial counts: 2~4 h
[7]; CVCC 46, 2×MIC, followed for 10 h
  Bacterial regrowth in time-kill curve: regrowth of C. perfringens strain CVCC 46 was observed
[8]; combination Aureomycin-MP1102, CVCC 46
  MICC (MIC of drug used in combination): 2.09 µM
[8]; combination Aureomycin-MP1102, MIC in combination / MIC alone
  FIC: 0.25
[8]; combination Aureomycin-NZ2114, CVCC 46
  MICC (MIC of drug used in combination): 4.18 µM
[8]; combination Aureomycin-NZ2114, MIC in combination / MIC alone
  FIC: 0.5
[9]
  MIC: 8.36 µM

## CCC[C@@H]1C[C@@H](C(=O)N[C@@H]([C@H]2O[C@H](SC)[C@H](O)[C@@H](O)[C@H]2O)[C@@H](C)O)N(C)C1 [Lincomycin]
[1]
  MIC: 4.3 µM (≈ 1.75 µg/mL)
[2]
  MBC: 8.68 µM (≈ 3.53 µg/mL)
  MIC: 8.68 µM (≈ 3.53 µg/mL)
[3]
  MIC: 2.2 µM (≈ 0.894 µg/mL)
[4]
  MIC: > 278 µM
[5]
  MIC: > 278 µM
[6]
  MIC: 2.17 µM (≈ 0.882 µg/mL)
[7]; [22]
  Time to 99.9% reduction of bacterial counts: 2~4 h
[8]; combination Lincomycin-MP1102, CVCC 46
  MICC (MIC of drug used in combination): 4.34 µM
[8]; combination Lincomycin-MP1102, MIC in combination / MIC alone
  FIC: 0.5
[8]; combination Lincomycin-NZ2114, CVCC 46
  MICC (MIC of drug used in combination): 4.34 µM
[8]; combination Lincomycin-NZ2114, MIC in combination / MIC alone
  FIC: 0.5
[9]
  MIC: 8.68 µM

## CC[C@H](C)[C@@H]1NC(=O)[C@H](CO)NC(=O)[C@H](CCCCN)NC(=O)[C@@H]2CSSC[C@@H](C(=O)N[C@@H](Cc3ccc(O)cc3)C(=O)O)NC(=O)[C@H](CCCCN)NC(=O)[C@@H]3CSSC[C@H](NC(=O)[C@H](CCCCN)NC(=O)[C@H](C(C)C)NC(=O)[C@H](CC(=O)O)NC(=O)[C@H](CC(=O)O)NC(=O)[C@H](CCC(=O)O)NC(=O)[C@H](CCC(N)=O)NC(=O)[C@H](Cc4c[nH]c5ccccc45)NC(=O)[C@@H]4CCCN4C(=O)CNC(=O)[C@H](CC(N)=O)NC(=O)[C@@H](NC(=O)CNC(=O)[C@H](Cc4ccccc4)NC(=O)CN)CSSC[C@H](NC(=O)[C@H](Cc4ccc(O)cc4)NC(=O)CNC(=O)CNC(=O)[C@H](CCCCN)NC(=O)[C@H](Cc4ccc(O)cc4)NC(=O)CNC(=O)[C@H](CCCCN)NC1=O)C(=O)N[C@@H](C)C(=O)N[C@@H](CCCCN)C(=O)NCC(=O)NCC(=O)N[C@@H](Cc1ccccc1)C(=O)N[C@@H](C(C)C)C(=O)N3)C(=O)N[C@@H](Cc1c[nH]cn1)C(=O)N[C@@H](CC(N)=O)C(=O)N[C@@H](Cc1c[nH]cn1)C(=O)N2 [MP1102] (H-GFGCNGPWQEDDVKCHNHCKSIKGYKGGYCAKGGFVCKCY-OH; disulfide 4-30, 15-37, 19-39)
[10]
  PI-stained percentages of cells: 3.11~5.67%
[11]; CVCC 46, 18 h
  MBC: 0.91 µM (≈ 3.99 µg/mL)
  MIC: 0.91 µM (≈ 3.99 µg/mL)
[12]; CVCC 1137, 18 h
  MIC: 1.82 µM (≈ 7.98 µg/mL)
[13]; CVCC 51, 18 h
  MIC: 0.91 µM (≈ 3.99 µg/mL)
[14]; JZ10, 18 h
  MIC: >14.5 µM
[15]
  Binding to genomic DNA (gel retardation): interacted with MDR C. perfringens CVCC 46 genomic DNA
  Peptide/DNA mass ratio for complete retardation of DNA migration: > 10.0
[7]
  Bacterial regrowth in time-kill curve: no bacterial regrowth
  Time to 99.9% reduction of bacterial counts: ≤ 1 h
[8]
  MICa (MIC of drug used alone): 1.82 µM
[8]; CVCC 46
  FICI, range over the tested antibiotics: 0.375~1.0
[16]; JC2, 18 h
  MIC: >14.5 µM
[17]
  Change of CD spectrum of genomic DNA: DNA ellipticity intensity decreased
[18]
  PI-stained percentages of cells, range over time: 36.5~96.7%
[19]; JT1, 18 h
  MIC: 0.46 µM (≈ 2.02 µg/mL)
[20]
  Ratio of cells in phase I: 8.14% and 13.65%

## CC[C@H](C)[C@@H]1NC(=O)[C@H](CO)NC(=O)[C@H](CCCCN)NC(=O)[C@@H]2CSSC[C@@H](C(=O)N[C@@H](Cc3ccc(O)cc3)C(=O)O)NC(=O)[C@H](CCCCN)NC(=O)[C@@H]3CSSC[C@H](NC(=O)[C@H](CCC(N)=O)NC(=O)[C@H](CCSC)NC(=O)[C@H](CC(=O)O)NC(=O)[C@H](CC(=O)O)NC(=O)[C@H](CCC(=O)O)NC(=O)[C@H](CC(=O)O)NC(=O)[C@H](Cc4c[nH]c5ccccc45)NC(=O)[C@@H]4CCCN4C(=O)CNC(=O)[C@H](CC(N)=O)NC(=O)[C@@H](NC(=O)CNC(=O)[C@H](Cc4ccccc4)NC(=O)CN)CSSC[C@H](NC(=O)[C@H](Cc4ccc(O)cc4)NC(=O)CNC(=O)CNC(=O)[C@H](CCCCN)NC(=O)[C@H](Cc4ccc(O)cc4)NC(=O)CNC(=O)[C@H](CCCCN)NC1=O)C(=O)N[C@@H](C)C(=O)N[C@@H](CCCCN)C(=O)NCC(=O)NCC(=O)N[C@@H](Cc1ccccc1)C(=O)N[C@@H](C(C)C)C(=O)N3)C(=O)N[C@@H](Cc1c[nH]cn1)C(=O)N[C@@H](CC(N)=O)C(=O)N[C@@H](Cc1c[nH]cn1)C(=O)N2 [Plectasin]
[11]; CVCC 46, 18 h
  MBC: 1.81 µM (≈ 7.97 µg/mL)
  MIC: 1.81 µM (≈ 7.97 µg/mL)
[14]; JZ10, 18 h
  MIC: >14.5 µM
[16]; JC2, 18 h
  MIC: >14.5 µM
[21]
  Hemolysis / cytotoxicity: non-hemolytic or non-cytotoxic
[19]; JT1, 18 h
  MIC: 0.23 µM (≈ 1.01 µg/mL)

## CN[C@H](CC(C)C)C(=O)N[C@H]1C(=O)N[C@@H](CC(N)=O)C(=O)N[C@H]2C(=O)N[C@H]3C(=O)N[C@H](C(=O)N[C@H](C(=O)O)c4cc(O)cc(O)c4-c4cc3ccc4O)[C@H](O)c3ccc(c(Cl)c3)Oc3cc2cc(c3O[C@@H]2O[C@H](CO)[C@@H](O)[C@H](O)[C@H]2O[C@H]2C[C@](C)(N)[C@H](O)[C@H](C)O2)Oc2ccc(cc2Cl)[C@H]1O [Vancomycin]
[1]
  MIC: 0.69 µM (≈ 1 µg/mL)
[2]
  MBC: 0.69 µM (≈ 1 µg/mL)
  MIC: 0.69 µM (≈ 1 µg/mL)
[3]
  MIC: 0.69 µM (≈ 1 µg/mL)
[4]
  MIC: 22.1 µM (≈ 32 µg/mL)
[5]
  MIC: 22.1 µM (≈ 32 µg/mL)
[6]
  MIC: 0.69 µM (≈ 1 µg/mL)
[7]
  Time to 99.9% reduction of bacterial counts: 8 h
[8]
  FIC: 0.5
  MICC (MIC of drug used in combination): 0.345 µM
[9]
  MIC: 0.69 µM

## Bacitracin zinc
[11]; [23]
  MIC: 0.67 µM
[11]; [24]
  MBC: 1.34 µM
[12]; [25]
  MIC: 1.35 µM
[13]; [26]
  MIC: 1.35 µM
[14]; [27]
  MIC: >86.1 µM
[7]; [22]
  Time to 99.9% reduction of bacterial counts: 8 h
[8]; [28]
  MICa (MIC of drug used alone): 0.67 µM
[8]; combination Bacitracin zinc-MP1102, MIC in combination / MIC alone
  FIC: 0.5
[8]; combination Bacitracin zinc-NZ2114, MIC in combination / MIC alone
  FIC: 0.25
[16]; [29]
  MIC: >86.1 µM
[19]; [30]
  MIC: 0.67 µM

## Virginiamycin
[11]; [23]
  MIC: 0.96 µM
[11]; [24]
  MBC: 0.96 µM
[12]; [25]
  MIC: 0.48 µM
[13]; [26]
  MIC: 0.24 µM
[14]; [27]
  MIC: 121.8 µM
[7]; [22]
  Time to 99.9% reduction of bacterial counts: 2~4 h
[8]; [28]
  MICa (MIC of drug used alone): 0.96 µM
[8]; combination Virginiamycin-MP1102, CVCC 46
  MICC (MIC of drug used in combination): 0.12 µM
[8]; combination Virginiamycin-MP1102, MIC in combination / MIC alone
  FIC: 0.125
[8]; combination Virginiamycin-NZ2114, CVCC 46
  MICC (MIC of drug used in combination): 0.48 µM
[8]; combination Virginiamycin-NZ2114, MIC in combination / MIC alone
  FIC: 0.5
[16]; [29]
  MIC: 60.9 µM
[19]; [30]
  MIC: 0.46 µM
